Test results taken from patent US20040192611A1, “Peptide antioxidants from soy protein” (Kraft Foods Holdings, Inc., priority 2003, published 2004).

Assay: Antioxidant activity of soy-derived peptides isolated by HPLC (assay not specified)
Details: qualitative statement
Source text: In another aspect, the invention is directed to a method of producing a peptide with antioxidant activity. The peptide is made by digesting soy protein isolate (available commercially, e.g., from Protein Technology International, St. Louis, Mo., or using procedures well established in the art) with a protease to produce an aqueous hydrolysate solution. Proteases that may be used for digestion include chymosin, papain, neutrase, promod, and flavozyme and, preferably, either alcalase or corolase. The protease may come from bacterial, plant or fungal sources. The aqueous hydrolysate solution is extracted with an organic solvent, preferably acetone, and the organic phase is selected for further processing. After extraction, solvent may be removed under reduced pressure to concentrate the peptide and the preparation is then fractionated by reverse phase high pressure liquid chromatography (HPLC). Fractions collected during this process may be assayed for antioxidant activity using methods such as those described in the Examples section herein. The identification of fractions containing the peptide may be based upon the presence of antioxidant activity and upon retention time during chromatography. The identity of the peptide within fractions can be confirmed by sequence analysis.
After recovering peptide from the extraction, reverse phase high pressure liquid chromatography may be performed using, for example, a C18 column. […] Fractions collected from the column may be tested for antioxidant activity to identify peaks that are of interest. Finally, specific peptides may be identified by carrying out sequencing experiments.
Fractions with antioxidant activity are collected and subjected to further purification. This is carried out using the mobile phases:
Fractions with antioxidant activity are collected and subject to further purification. In this case, the same mobile phases are used. The flow rate is set at 0.4 ml/min and ultraviolet absorbance is set at 275 nm. The gradient elution program is set as follows: […]

Substance | antioxidant activity
WWMY (Glycine max) | found to have antioxidant activity
SWWPF (Glycine max) | found to have antioxidant activity
WTY | found to have antioxidant activity
